Data on 24 compounds can be found in patent US20090062251A1, “Novel Compounds 002” (ASTRAZENECA AB, priority 2007, published 2009).

The term pKi denotes the negative decadic logarithm of the Ki, by convention in mol/L. A high value points to a low Ki. One may read the pEC50 as the EC50 on a negative log10 scale, so that one unit is a factor of ten. A higher pEC50 goes with a low EC50. Broadly, the Emax is the maximal effect, on the per cent scale that the assay sets.

In test [1] the target is T1, Human CB1 receptor (hCB1) (Homo sapiens, UniProt P21554).
T1 construct: purchased Receptor Biology
T1 sequence (P21554 whole entry): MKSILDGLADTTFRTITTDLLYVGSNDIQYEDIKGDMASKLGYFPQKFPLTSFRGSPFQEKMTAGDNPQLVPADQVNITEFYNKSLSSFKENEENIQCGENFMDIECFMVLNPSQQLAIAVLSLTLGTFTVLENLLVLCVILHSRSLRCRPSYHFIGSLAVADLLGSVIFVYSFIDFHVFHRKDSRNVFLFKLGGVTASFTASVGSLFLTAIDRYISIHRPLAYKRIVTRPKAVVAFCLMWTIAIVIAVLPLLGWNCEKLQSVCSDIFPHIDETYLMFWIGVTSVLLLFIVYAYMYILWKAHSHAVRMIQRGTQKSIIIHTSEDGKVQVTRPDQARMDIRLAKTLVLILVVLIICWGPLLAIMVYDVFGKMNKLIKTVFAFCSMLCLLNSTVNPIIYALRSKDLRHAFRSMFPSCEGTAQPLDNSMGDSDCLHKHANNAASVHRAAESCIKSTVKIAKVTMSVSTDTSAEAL
The test can be described thus: hCB1 receptor binding (3H-CP55,940 displacement). Particulars: hCB1 membranes, Ki=IC50/(1+[rad]/Kd). As to the method: hCB1 and hCB2 Receptor Binding
Human CB1 receptor from Receptor Biology (hCB1) or human CB2 receptor from BioSignal (hCB2) membranes are thawed at 37° C., passed 3 times through a 25-gauge blunt-end needle, diluted in the cannabinoid binding buffer (50 mM Tris, 2.5 mM EDTA, 5 mM MgCl2, and 0.5 mg/mL BSA fatty acid free, pH 7.4) and aliquots containing the appropriate amount of protein are distributed in 96-well plates. […] The total and non-specific binding are determined in the absence and presence of 0.2 μM of HU210 respectively. The plates are vortexed and incubated for 60 minutes at room temperature, filtered through Unifilters GF/B (presoaked in 0.1% polyethyleneimine) with the Tomtec or Packard harvester using 3 mL of wash buffer (50 mM Tris, 5 mM MgCl2, 0.5 mg BSA pH 7.0). The filters are dried for 1 hour at 55° C. The radioactivity (cpm) is counted in a TopCount (Packard) after adding 65 μl/well of MS-20 scintillation liquid.
Based on the above assays, the dissociation constant (Ki) for a particular compound of the invention towards a particular receptor is determined using the following equation:
[rad] is a standard or reference radioactive ligand concentration at that moment; and
Kd is the dissociation constant of the radioactive ligand towards the particular receptor.

Test [2] deals with T1, Human CB1 receptor (hCB1). The test can be described thus: hCB1 GTPγS binding. The format is biochemical. Particulars: for pEC50: hCB1 membranes, GTPγ35S, 10-point dose-response; for Emax: maximal stimulated binding determined with 10 μM Win 55,212-2. In short, it runs like this: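 Human CB1 membranes in 50 mM Hepes, 100 mM NaCl, 1 mM EDTA, 5 mM MgCl2, 0.1% BSA, pH 7.4 were preincubated 5 min with GDP (30 μM final). Basal and maximal binding were defined without or with 10 μM Win 55,212-2; incubation 60 min RT; filter-bound radioactivity counted. Antagonist reversal used fixed antagonist with agonist curve, or fixed agonist with antagonist curve.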
(In general: Binding of GTPγS marks nucleotide exchange on a G protein.)

Molecules are shown by their SMILES. pEC50, pKi: −log10 of the molar value.

In test [1], `CCn1c2c(c3cc(C(=O)N(C)CCCC(=O)NCC(F)F)ccc31)CC(C1CCOCC1)CC2` (stereo not drawn) [N-[3-(2,2-difluoroethylcarbamoyl)propyl]-9-ethyl-N-methyl-6-(oxan-4-yl)-5,6,7,8-tetrahydrocarbazole-3-carboxamide] had a negative-log Ki (pKi) of 7.34. In test [2], this compound showed a negative-log EC50 (pEC50) of 7.01 and an Emax of 114%.
On the same counts, the results for `CCN(CCCC(=O)NC1CC1)C(=O)c1ccc2c(c1)c1c(n2C)CCC(C2CCOCC2)C1` (stereo not drawn) [N-[3-(cyclopropylcarbamoyl)propyl]-N-ethyl-9-methyl-6-(oxan-4-yl)-5,6,7,8-tetrahydrocarbazole-3-carboxamide] are 8.55, 8.31 and 116%.
The like results for `CCNC(=O)CN(CC)C(=O)c1ccc2c(c1)c1c(n2C2CCC2)CCC(C2CCOCC2)C1` (stereo not drawn) [9-cyclobutyl-N-ethyl-N-(ethylcarbamoylmethyl)-6-(oxan-4-yl)-5,6,7,8-tetrahydrocarbazole-3-carboxamide] were, in that order, 6.95, 6.63 and 82%.
The like results for `CCN(CCCCO)C(=O)c1ccc2c(c1)c1c(n2C)CCC(C2CCOCC2)C1` (stereo not drawn) [N-ethyl-N-(4-hydroxybutyl)-9-methyl-6-(oxan-4-yl)-5,6,7,8-tetrahydrocarbazole-3-carboxamide] were, in that order, 7.14, 6.56 and 122%.
Regarding `CCNC(=O)CN(CC)C(=O)c1ccc2c(c1)c1c(n2C)CCC(C2CCOCC2)C1` (stereo not drawn) [N-ethyl-N-(ethylcarbamoylmethyl)-9-methyl-6-(oxan-4-yl)-5,6,7,8-tetrahydrocarbazole-3-carboxamide], in test [1], the negative logarithm of the Ki (pKi) is 7.76. In test [2], this compound showed a pEC50 of 7.48 and an Emax of 121%.
In turn, `Cn1c2c(c3cc(C(=O)N4CCCC(C(=O)NC5CC5)C4)ccc31)CC(C1CCOCC1)CC2` (stereo not drawn) [N-cyclopropyl-1-[9-methyl-6-(oxan-4-yl)5,6,7,8-tetrahydrocarbazole-3-carbonyl]piperidine-3-carboxamide] showed a pKi in test [1] of 7.49. Further, in test [2], the pEC50 is 6.89 and the Emax was determined as 115%.
On the same counts, the results for `Cn1c2c(c3cc(C(=O)N4CCC(C(=O)NCCF)C4)ccc31)CC(C1CCOCC1)CC2` (stereo not drawn) [N-(2-fluoroethyl)-1-[9-methyl-6-(oxan-4-yl)5,6,7,8-tetrahydrocarbazole-3-carbonyl]pyrrolidine-3-carboxamide] are 6.90, 6.58 and 121%.
For `Cn1c2c(c3cc(C(=O)N4CC[C@H](CC(=O)NC5CC5)C4)ccc31)CC(C1CCOCC1)CC2` (stereo partly drawn) [N-cyclopropyl-2-[(3R)-1-[9-methyl-6-(oxan-4-yl)5,6,7,8-tetrahydrocarbazole-3-carbonyl]pyrrolidin-3-yl]acetamide], in test [1], the pKi is 7.45. Moreover, in test [2], the negative-log EC50 (pEC50) is 7.16 and the Emax is 115%.
The like results for `CCN(CC(=O)NCCF)C(=O)c1ccc2c(c1)c1c(n2S(=O)(=O)CC)CCC(C2CCOCC2)C1` (stereo not drawn) [N-ethyl-9-ethylsulfonyl-N-(2-fluoroethylcarbamoylmethyl)-6-(oxan-4-yl)-5,6,7,8-tetrahydrocarbazole-3-carboxamide] were, in that order, 7.89, 7.89 and 107%.
The compound `CCN(CC(=O)NC(C)C)C(=O)c1ccc2c(c1)c1c(n2C)CCC(C2CCOCC2)C1` (stereo not drawn) [N-ethyl-9-methyl-6-(oxan-4-yl)-N-(propan-2-ylcarbamoylmethyl)-5,6,7,8-tetrahydrocarbazole-3-carboxamide] showed a negative logarithm of the Ki (pKi) in test [1] of 7.50. In test [2], this compound showed a pEC50 of 7.38 and a maximal effect (Emax) of 123%.
In test [1], `CCN(CC(=O)NCCC#N)C(=O)c1ccc2c(c1)c1c(n2S(=O)(=O)CC)CCC(C2CCOCC2)C1` (stereo not drawn) [N-(2-cyanoethylcarbamoylmethyl)-N-ethyl-9-ethylsulfonyl-6-(oxan-4-yl)-5,6,7,8-tetrahydrocarbazole-3-carboxamide] had a pKi of 6.94. Besides, in test [2], the pEC50 was 6.92 and the maximum response (Emax) was found to be 115%.
`CCS(=O)(=O)n1c2c(c3cc(C(=O)N4CCC(O)CC4)ccc31)CC(C1CCOCC1)CC2` (stereo not drawn) [[9-ethylsulfonyl-6-(oxan-4-yl)-5,6,7,8-tetrahydrocarbazol-3-yl]-(4-hydroxy-1-piperidyl)methanone]: in test [1], the negative-log Ki (pKi) was 6.81. In test [2], the negative logarithm of the EC50 (pEC50) is 6.45 and the Emax was 107%.
On the same counts, the results for `CN(C(=O)c1ccc2c(c1)c1c(n2C)CC[C@@H](C2CCOCC2)C1)[C@H](CO)CCC(=O)NCCF` [(R)—N-((S)-5-(2-Fluoroethylamino)-1-hydroxy-5-oxopentan-2-yl)-N,9-dimethyl-3-(tetrahydro-2H-pyran-4-yl)-2,3,4,9-tetrahydro-1H-carbazole-6-carboxamide] are 7.59, 7.21 and 118%.
On the same counts, the results for `CCN(CC(=O)N[C@@H]1CCOC1)C(=O)c1ccc2c(c1)c1c(n2C)CCC(C2CCOCC2)C1` (stereo partly drawn) [N-ethyl-9-methyl-6-(oxan-4-yl)-N-[[(3R)-oxolan-3-yl]carbamoylmethyl]-5,6,7,8-tetrahydrocarbazole-3-carboxamide] are 6.66, 6.28 and 127%.
The like results for `C[C@H](C(=O)NC1CC1)N(C)C(=O)c1ccc2c(c1)c1c(n2C)CCC(C2CCOCC2)C1` (stereo partly drawn) [N-[(1R)-1-(cyclopropylcarbamoyl)ethyl]-N,9-dimethyl-6-(oxan-4-yl)-5,6,7,8-tetrahydrocarbazole-3-carboxamide] were, in that order, 7.71, 7.53 and 120%.
Compound `CCn1c2c(c3cc(C(=O)N(C)CCCC(=O)NCC(F)(F)F)ccc31)CC(C1CCOCC1)CC2` (stereo not drawn) [9-ethyl-N-methyl-6-(oxan-4-yl)-N-[3-(2,2,2-trifluoroethylcarbamoyl)propyl]-5,6,7,8-tetrahydrocarbazole-3-carboxamide] showed a pKi in test [1] of 6.96. Also, in test [2], the negative-log EC50 (pEC50) was 6.64 and the maximal response (Emax) was 98%.
In test [1], `CCNC(=O)CN(CC)C(=O)c1ccc2c(c1)c1c(n2CC2CC2)CCC(C2CCOCC2)C1` (stereo not drawn) [9-(cyclopropylmethyl)-N-ethyl-N-(ethylcarbamoylmethyl)-6-(oxan-4-yl)-5,6,7,8-tetrahydrocarbazole-3-carboxamide] had a negative-log Ki (pKi) of 7.19. For the same compound, in test [2], the negative-log EC50 (pEC50) was 6.80 and the Emax stood at 90%.
As for `CCNC(=O)CN(CC)C(=O)c1ccc2c(c1)c1c(n2CCF)CCC(C2CCOCC2)C1` (stereo not drawn) [N-ethyl-N-(ethylcarbamoylmethyl)-9-(2-fluoroethyl)-6-(oxan-4-yl)-5,6,7,8-tetrahydrocarbazole-3-carboxamide], in test [1], the pKi is 6.69. In test [2], this compound showed a pEC50 of 6.36 and an Emax of 109%.
The like results for `CCN(CC(=O)NCCOC)C(=O)c1ccc2c(c1)c1c(n2C)CCC(C2CCOCC2)C1` (stereo not drawn) [N-ethyl-N-(2-methoxyethylcarbamoylmethyl)-9-methyl-6-(oxan-4-yl)-5,6,7,8-tetrahydrocarbazole-3-carboxamide] were, in that order, 6.66, 6.34 and 113%.
On to `CCN(CC(=O)NC1CC1)C(=O)c1ccc2c(c1)c1c(n2CC2CC2)CCC(C2CCOCC2)C1` (stereo not drawn) [N-(cyclopropylcarbamoylmethyl)-9-(cyclopropylmethyl)-N-ethyl-6-(oxan-4-yl)-5,6,7,8-tetrahydrocarbazole-3-carboxamide], for which, in test [1], the negative-log Ki (pKi) is 7.67. Also, in test [2], the pEC50 was 7.47 and the Emax was determined as 91%.
On the same counts, the results for `CCn1c2c(c3cc(C(=O)N(C)CCCC(=O)NCCO)ccc31)CC(C1CCOCC1)CC2` (stereo not drawn) [9-ethyl-N-[3-(2-hydroxyethylcarbamoyl)propyl]-N-methyl-6-(oxan-4-yl)-5,6,7,8-tetrahydrocarbazole-3-carboxamide] are 6.63, 6.22 and 119%.
The like results for `CC(C)C(=O)NC1CCCN(C(=O)c2ccc3c(c2)c2c(n3C)CCC(C3CCOCC3)C2)C1` (stereo not drawn) [2-methyl-N-[1-[9-methyl-6-(oxan-4-yl)5,6,7,8-tetrahydrocarbazole-3-carbonyl]-3-piperidyl]propanamide] were, in that order, 6.80, 6.40 and 118%.
The like results for `CN(CCCC(=O)NC1CC1)C(=O)c1ccc2c(c1)c1c(n2C)CCC(C2CCOCC2)C1` (stereo not drawn) [N-[3-(cyclopropylcarbamoyl)propyl]-N,9-dimethyl-6-(oxan-4-yl)-5,6,7,8-tetrahydrocarbazole-3-carboxamide] were, in that order, 8.15, 7.79 and 113%.
Consider `CCNC(=O)C1CCN(C(=O)c2ccc3c(c2)c2c(n3C)CCC(C3CCOCC3)C2)C1` (stereo not drawn) [N-ethyl-1-[9-methyl-6-(oxan-4-yl)5,6,7,8-tetrahydrocarbazole-3-carbonyl]pyrrolidine-3-carboxamide], for which the negative logarithm of the Ki (pKi) in test [1] was 6.79. Further, in test [2], the pEC50 was 6.49 and the Emax is 119%.
